Results reported in patent publication US20250099511A1, “PHARMACEUTICAL COMPOSITION FOR PREVENTING OR TREATING CANCER” (ENTEROBIOME INC., priority 2022, published 2025).
Values after ≈ are worked out from the molar mass of the structure shown. Read-outs that look alike come from different tables or passages of the source.

Assays:
Format in all cases: cell-based
[1] = tested on: Bacteroides thetiotaomicron ATCC 29741; experiment: MIC by broth microdilution (CLSI), QC strain
[2] = tested on: Faecalibacterium prausnitzii A2-165; experiment: MIC by broth microdilution (CLSI), type strain; conditions: for susceptibility category (S/I/R) by MIC breakpoints: strain A2-165; for MIC: test strain A2-165
[3] = tested on: Faecalibacterium prausnitzii EB-FPDK3; experiment: MIC by broth microdilution (CLSI); conditions: for susceptibility category (S/I/R) by MIC breakpoints: strain EB-FPDK3; for MIC: test strain EB-FPDK3
[4] = tested on: Faecalibacterium prausnitzii EB-FPDK9; experiment: MIC by broth microdilution (CLSI); conditions: for susceptibility category (S/I/R) by MIC breakpoints: strain EB-FPDK9; for MIC: test strain EB-FPDK9
[5] = tested on: Faecalibacterium prausnitzii EB-FPDK11; experiment: MIC by broth microdilution (CLSI); conditions: for susceptibility category (S/I/R) by MIC breakpoints: strain EB-FPDK11; for MIC: test strain EB-FPDK11
[6] = tested on: Faecalibacterium prausnitzii EB-FPYYK1; experiment: MIC by broth microdilution (CLSI); conditions: for susceptibility category (S/I/R) by MIC breakpoints: strain EB-FPYYK1; for MIC: test strain EB-FPYYK1
[7] = tested on: Faecalibacterium prausnitzii strains of the present invention; experiment: Antimicrobial susceptibility, summary for all strains; conditions: all Faecalibacterium prausnitzii strains of Table 5
[8] = Faecalibacterium prausnitzii, A2165, read-out: MIC
[9] = Faecalibacterium prausnitzii, EBFPDK3, read-out: MIC
[10] = Faecalibacterium prausnitzii, EBFPDK9, read-out: MIC
[11] = Faecalibacterium prausnitzii, EBFPDK11, read-out: MIC
[12] = Faecalibacterium prausnitzii, EBFPYYK1, read-out: MIC

O=C(N[C@H](CO)[C@H](O)c1ccc([N+](=O)[O-])cc1)C(Cl)Cl [CHL, chloramphenicol]
MIC ([1]; Bacteroides, ATCC29741): 8 µg/mL (≈ 24.8 µM)
susceptibility category (S/I/R) by MIC breakpoints ([2]; CHL breakpoints): (R) (≥32)
MIC [2, 8]: 64 µg/mL (≈ 198 µM)
susceptibility category (S/I/R) by MIC breakpoints ([3]; CHL breakpoints): (S) (≤8)
MIC [3, 9]: 8 µg/mL (≈ 24.8 µM)
susceptibility category (S/I/R) by MIC breakpoints ([4]; CHL breakpoints): (R) (≥32)
MIC [4, 10]: 32 µg/mL (≈ 99 µM)
susceptibility category (S/I/R) by MIC breakpoints ([5]; CHL breakpoints): (S) (≤8)
MIC [5, 11]: 8 µg/mL (≈ 24.8 µM)
susceptibility category (S/I/R) by MIC breakpoints ([6]; CHL breakpoints): (R) (≥32)
MIC [6, 12]: 256 µg/mL (≈ 792 µM)

CCC[C@@H]1C[C@@H](C(=O)N[C@@H]([C@H]2O[C@H](SC)[C@H](O)[C@@H](O)[C@H]2O)[C@H](C)Cl)N(C)C1 [CLI, clindamycin]
susceptibility category (S/I/R) by MIC breakpoints ([2]; CLI breakpoints): (S) (≤2)
MIC [2, 8]: ≤ 0.125 µg/mL
susceptibility category (S/I/R) by MIC breakpoints ([3]; CLI breakpoints): (S) (≤2)
MIC [3, 9]: ≤ 0.125 µg/mL
susceptibility category (S/I/R) by MIC breakpoints ([4]; CLI breakpoints): (S) (≤2)
MIC [4, 10]: ≤ 0.125 µg/mL
susceptibility category (S/I/R) by MIC breakpoints ([5]; CLI breakpoints): (S) (≤2)
MIC [5, 11]: ≤ 0.125 µg/mL
susceptibility category (S/I/R) by MIC breakpoints ([6]; CLI breakpoints): (S) (≤2)
MIC [6, 12]: ≤ 0.125 µg/mL

CO/N=C(\C(=O)N[C@@H]1C(=O)N2C(C(=O)O)=CCS[C@H]12)c1csc(N)n1 [CTZ, ceftizoxime]
MIC ([1]; Bacteroides, ATCC29741): 16 µg/mL (≈ 41.7 µM)
susceptibility category (S/I/R) by MIC breakpoints ([2]; CTZ breakpoints): (I) (64)
MIC [2, 8]: 64 µg/mL (≈ 167 µM)
susceptibility category (S/I/R) by MIC breakpoints ([3]; CTZ breakpoints): (S) (≤32)
MIC [3, 9]: 16 µg/mL (≈ 41.7 µM)
susceptibility category (S/I/R) by MIC breakpoints ([4]; CTZ breakpoints): (R) (≥128)
MIC [4, 10]: 128 µg/mL (≈ 334 µM)
susceptibility category (S/I/R) by MIC breakpoints ([5]; CTZ breakpoints): (R) (≥128)
MIC [5, 11]: 128 µg/mL (≈ 334 µM)
susceptibility category (S/I/R) by MIC breakpoints ([6]; CTZ breakpoints): (R) (≥128)
MIC [6, 12]: 128 µg/mL (≈ 334 µM)

C[C@@H](O)[C@H]1C(=O)N2C(C(=O)O)=C(S[C@@H]3CN[C@H](C(=O)N(C)C)C3)[C@H](C)[C@H]12 [MEM, meropenem]
MIC ([1]; Bacteroides, ATCC29741): 0.5 µg/mL (≈ 1.3 µM)
MIC [2, 8]: > 64 µg/mL
susceptibility category (S/I/R) by MIC breakpoints ([2]; MEM breakpoints): (R) (≥16)
MIC [3, 9]: > 64 µg/mL
susceptibility category (S/I/R) by MIC breakpoints ([3]; MEM breakpoints): (R) (≥16)
MIC [4, 10]: > 64 µg/mL
susceptibility category (S/I/R) by MIC breakpoints ([4]; MEM breakpoints): (R) (≥16)
MIC [5, 11]: > 64 µg/mL
susceptibility category (S/I/R) by MIC breakpoints ([5]; MEM breakpoints): (R) (≥16)
MIC [6, 12]: > 64 µg/mL
susceptibility category (S/I/R) by MIC breakpoints ([6]; MEM breakpoints): (R) (≥16)

Cc1ncc([N+](=O)[O-])n1CCO [MTZ, metronidazole]
MIC ([1]; Bacteroides, ATCC29741): 2 µg/mL (≈ 11.7 µM)
MIC [2, 8]: 4 µg/mL (≈ 23.4 µM)
susceptibility category (S/I/R) by MIC breakpoints ([2]; MTZ breakpoints): (S) (≤8)
MIC [3, 9]: 1 µg/mL (≈ 5.84 µM)
susceptibility category (S/I/R) by MIC breakpoints ([3]; MTZ breakpoints): (S) (≤8)
MIC [4, 10]: < 0.25 µg/mL
susceptibility category (S/I/R) by MIC breakpoints ([4]; MTZ breakpoints): (S) (≤8)
MIC [5, 11]: 0.5 µg/mL (≈ 2.92 µM)
susceptibility category (S/I/R) by MIC breakpoints ([5]; MTZ breakpoints): (S) (≤8)
MIC [6, 12]: 2 µg/mL (≈ 11.7 µM)
susceptibility category (S/I/R) by MIC breakpoints ([6]; MTZ breakpoints): (S) (≤8)
susceptibility or resistance of all the strains to the antibiotic [7]: susceptibility

COc1c(N2C[C@@H]3CCCN[C@@H]3C2)c(F)cc2c(=O)c(C(=O)O)cn(C3CC3)c12 [MXF, moxifloxacin]
MIC ([1]; Bacteroides, ATCC29741): 8 µg/mL (≈ 19.9 µM)
MIC [2, 8]: 16 µg/mL (≈ 39.9 µM)
susceptibility category (S/I/R) by MIC breakpoints ([2]; MXF breakpoints): (R) (≥8)
MIC [3, 9]: > 32 µg/mL
susceptibility category (S/I/R) by MIC breakpoints ([3]; MXF breakpoints): (R) (≥8)
MIC [4, 10]: 32 µg/mL (≈ 79.7 µM)
susceptibility category (S/I/R) by MIC breakpoints ([4]; MXF breakpoints): (R) (≥8)
MIC [5, 11]: 32 µg/mL (≈ 79.7 µM)
susceptibility category (S/I/R) by MIC breakpoints ([5]; MXF breakpoints): (R) (≥8)
MIC [6, 12]: > 32 µg/mL
susceptibility category (S/I/R) by MIC breakpoints ([6]; MXF breakpoints): (R) (≥8)

piperacillin-tazobactam [PTZ]
MIC ([1]; QC ATCC 29741): 8/4
susceptibility category (S/I/R) by MIC breakpoints ([2]; PTZ breakpoints): (R) (≥128/4)
MIC [2]: >256/4
susceptibility category (S/I/R) by MIC breakpoints ([3]; PTZ breakpoints): (S) (≤32/4)
MIC [3]: 32/4
susceptibility category (S/I/R) by MIC breakpoints ([4]; PTZ breakpoints): (S) (≤32/4)
MIC [4]: 32/4
susceptibility category (S/I/R) by MIC breakpoints ([5]; PTZ breakpoints): (R) (≥128/4)
MIC [5]: >256/4
susceptibility category (S/I/R) by MIC breakpoints ([6]; PTZ breakpoints): (R) (≥128/4)
MIC [6]: >256/4
